Reference: patent US4491675A, “Hydroformylation process using triarylphosphine and bisphosphine monooxide ligands” (Union Carbide Corporation, priority 1981, dated 1985)

Key:
[1] = Continuous propylene hydroformylation, long term catalyst stability (Examples 1 to 13, Table I); conditions: for thermal catalyst stability: 130° C., in words, relative comparison of ligand systems of Table I; for Aldehyde Product Reaction Rate, day 4, corrected reaction rate (in parenthesis) / Aldehyde Product Reaction Rate, day 4: day 4 at 130° C.; for Aldehyde Product Reaction Rate, day 4, corrected reaction rate (in parenthesis): corrected with mathematical rate model for standard rhodium-triphenylphosphine catalyst; for % Activity Decline: decline in catalyst activity from Day 1 through Day 4 at 130° C.; for Aldehyde Product Reaction Rate, day 1 / Aldehyde Product Reaction Rate, day 4: observed, total gas about 165 psig, Rh 100 or 200 ppm; for Aldehyde Product Reaction Rate, day 1: day 1 at 130° C.
Description: A series of long term catalyst stability experiments were conducted in a glass reactor operating in a continuous propylene hydroformylation mode. The reactor consisted of a three ounce pressure bottle submersed in an oil bath with a glass front for viewing. In each experiment about 20 ml. of a freshly prepared rhodium catalytic precursor solution was charged to the reactor with a syringe after purging the system with nitrogen. Each precursor solution contained from 100 to 200 ppm rhodium calculated as free metal (as noted in Table I below) introduced as rhodium dicarbonyl acetylacetonate, a phosphorus ligand or mixture of phosphorus ligands and a solvent.
After closing the reactor, the system was again purged with nitrogen and the oil bath was heated to furnish the desired hydroformylation reaction temperature. […] The flows of the feed gases (carbon monoxide, hydrogen and propylene) were controlled individually with mass flow meters and the feed gases dispersed into the precursor solution via fritted glass spargers. The unreacted portion of the feed gases stripped out the product aldehydes. […] The product aldehydes for each experiment were analyzed over the first day of continuous operation at 130° C. and over the fourth day of continuous operation at 130° C. and the average reaction rates for each experiment in terms of gram moles per liter per hour of total product aldehydes for the first and fourth days of continuous operation at the average measured partial pressures of hydrogen, carbon monoxide and propylene for said days are given in Table I below.

[2] = Continuous propylene hydroformylation with stepwise CO partial pressure increase, catalyst stability (Examples 14 to 18, Table II); conditions: for Aldehyde Product Reaction Rate, day 12, corrected reaction rate (in parenthesis): day 12 at 130° C., corrected with mathematical rate model for standard rhodium-triphenylphosphine catalyst; for % Activity Decline: decline in catalyst activity from Day 6 through Day 12 at 130° C.; for Aldehyde Product Reaction Rate, day 6: observed, day 6 at 130° C., total gas about 165 psig, Rh 200 or 300 ppm
Description: During days 9 to 13 the carbon monoxide partial pressure was increased stepwise from about 10 to 25 psia and returned to about 10 psia for day 14.

**Q.** Which results are given for `c1ccc(P(c2ccccc2)c2ccccc2)cc1` [Example 1, (C6 H5)3 P]?
**A.** thermal catalyst stability [1]: inferior thermal stability; Aldehyde Product Reaction Rate, day 4, corrected reaction rate (in parenthesis) [1]: 1.00 g·mol/L/h; % Activity Decline [1]: 42%; Aldehyde Product Reaction Rate, day 1 [1]: 1.74 g·mol/L/h; Aldehyde Product Reaction Rate, day 4 [1]: 1.12 g·mol/L/h

**Q.** Which results are given for `O=P(CCP(c1ccccc1)c1ccccc1)(c1ccccc1)c1ccccc1` [Example 9, (C6 H5)2 P(CH2)2 P(O)(C6 H5)2]?
**A.** thermal catalyst stability [1]: inferior thermal stability; Aldehyde Product Reaction Rate, day 4, corrected reaction rate (in parenthesis) [1]: 0.63 g·mol/L/h; % Activity Decline [1]: 40%; Aldehyde Product Reaction Rate, day 1 [1]: 1.06 g·mol/L/h; Aldehyde Product Reaction Rate, day 4 [1]: 0.87 g·mol/L/h

**Q.** For `c1ccc(P(c2ccccc2)c2ccccc2)cc1` [Example 14, (C6 H5)3 P], which “Aldehyde Product Reaction Rate, day 12, corrected reaction rate (in parenthesis)” value [2] is on record?
**A.** .76 gmoles/L hr

**Q.** What about the “% Activity Decline” value [2] of the same compound?
**A.** 32%

**Q.** And the “Aldehyde Product Reaction Rate, day 6” value [2]?
**A.** 1.12 gmoles/L hr

**Q.** What does the source list for (CH3 C6 H4)3 P [Example 3]?
**A.** Aldehyde Product Reaction Rate, day 4, corrected reaction rate (in parenthesis) [1]: 1.02 g·mol/L/h; % Activity Decline [1]: 25%; Aldehyde Product Reaction Rate, day 1 [1]: 1.36 g·mol/L/h; Aldehyde Product Reaction Rate, day 4 [1]: 1.49 g·mol/L/h

**Q.** For (CH3 O-C6 H4)3 P [Example 16], which “Aldehyde Product Reaction Rate, day 12, corrected reaction rate (in parenthesis)” value [2] is on record?
**A.** 1.14 gmoles/L hr

**Q.** What about the “% Activity Decline” value [2] of the same compound?
**A.** 14%

**Q.** And the “Aldehyde Product Reaction Rate, day 6” value [2]?
**A.** 1.33 gmoles/L hr

**Q.** Which “Aldehyde Product Reaction Rate, day 4, corrected reaction rate (in parenthesis)” value [1] does the source give for (CH3 OC6 H4)3 P [Example 5] here?
**A.** 1.36 g·mol/L/h

**Q.** And the “% Activity Decline” value [1]?
**A.** 13%

**Q.** What about the “Aldehyde Product Reaction Rate, day 1” value [1] of the same compound?
**A.** 1.57 g·mol/L/h

**Q.** What about the “Aldehyde Product Reaction Rate, day 4” value [1] of the same compound?
**A.** 1.68 g·mol/L/h

**Q.** What does the source list for (ClC6 H4)3 P [Example 8]?
**A.** Aldehyde Product Reaction Rate, day 4, corrected reaction rate (in parenthesis) [1]: .32 g·mol/L/h; % Activity Decline [1]: 46%; Aldehyde Product Reaction Rate, day 1 [1]: 0.59 g·mol/L/h; Aldehyde Product Reaction Rate, day 4 [1]: 0.49 g·mol/L/h

**Q.** Which results are given for CH3 -C6 H4)3 P [Example 15]?
**A.** Aldehyde Product Reaction Rate, day 12, corrected reaction rate (in parenthesis) [2]: 1.24 gmoles/L hr; % Activity Decline [2]: 17%; Aldehyde Product Reaction Rate, day 6 [2]: 1.50 gmoles/L hr
